Laboratory results from US20250213649A1, “PEPTIDE HAVING ANTI-INFLAMMATORY AND ANTI-FIBROTIC ACTIVITIES AND USE THEREOF” (CAREGEN CO., LTD., priority 2022, published 2025).

Key:
BALB/c mice [1] = assay: LPS-induced acute lung inflammation model, ELISA of pro-inflammatory proteins in BALF; assay type: in vivo; conditions: BALB/c female mice, LPS 10 μg intranasal, peptide 0.5 mg, 1 mg intranasal, 24 hours (FIG. 11a-11d)
Method: BALB/c mice (Female/7W) were used in animal experiments, and an acute lung inflammation model was established by injection of LPS. As shown in [Table 5] below, 7-week-old BALB/c female mice were divided into 5 groups of 5 mice each, and then the experiment was carried out. On the 1st day, LPS (10 μg/50 μl/mouse) was administered intranasally to the G2 to G5 groups. 1 hour after LPS administration, the G3 and G4 groups were subjected to intranasal administration with the peptide of Production Example 1 (0.5 mg, 1 mg), and the G5 positive control group was subjected to intraperitoneal administration with Dexamethasone (100 μg). 24 hours after the administration of the active substance and the drug, the mice were sacrificed to obtain the bronchoalveolar lavage fluid and the lung tissue, which were used in the next analysis.
The collected BALF was subjected to the ELISA analysis of pro-inflammatory proteins. The supernatant obtained by centrifuging the collected BALF at 3,000 rpm for 10 minutes was subjected to analysis using a TNF-α Quantikine ELISA kit (R&D systems), an IL-1β Quantikine ELISA kit (R&D systems), an IL-6 Quantikine ELISA kit (R&D systems), and a Myeloperoxidase (MPO) Quantikine ELISA Kit (R&D systems) according to the instructions for use, and then the absorbance was measured at 450 nm using a microplate reader.

BALB/c mice [2] = assay: BLM-induced pulmonary fibrosis model, cell counts in bronchoalveolar lavage fluid; assay type: in vivo; conditions: BALB/c male mice, peptide 1 mg/mouse intranasal three times a week for 14 days, 21st day (FIG. 13b)
Method: As shown in [Table 6] below, 8-week-old BALB/c male mice were divided into 4 groups of 5 mice each. On the 1st day, a Bleomycin solution ([…]/50 μl/mouse) was administered through the oropharynx to carry out one time of induction with BLM. Then, from the 7th day, the peptide of Production Example 1 (1 mg/mouse) was administered intranasally three times a week for 14 days, and Pirfeninone (2 mg/mouse) for a positive control group was administered orally three times a week for 14 days. On the 21st day of the induction with BLM, mice were sacrificed to obtain the bronchoalveolar lavage fluid and the lung tissue, which were used in the next analysis.
The mouse subjected to the animal experiment was anesthetized, and then the treatment area was disinfected with 70% ethanol. […] The separated cells were resuspended in 0.5 ml of PBS, subsequently diluted with trypan blue solution at a 1:1 ratio, and then the total number of cells was counted using a hematocytometer. […] After staining, cells were observed and counted through a microscope, and then the number of immune cells with respect to the total number of cells was calculated to show the results as a graph. […]

A549 cells = assay: Inhibition of LPS-induced inflammatory cytokine gene expression, RT-PCR, A549 cells; assay type: cell-based, human; conditions: 5 μg/ml LPS, peptide 10, 50, 100, 500 μM, 3 hours, RT-PCR (FIG. 2)
Method: A549 cells (human alveolar basal epithelial cells) were seeded at 3×10^5 cells/well in a 6-well plate and used in the experiment. After culturing for 1 day with a culture medium containing 10% FBS, the culture medium was replaced with a culture medium without containing FBS to induce starvation for 4 hours. A normal group without being treated with any substances, a group treated with 5 μg/ml of LPS (Sigma Aldrich) (negative control group), groups treated with 5 μg/ml of LPS and the peptide of Production Example 1 (10, 50, 100, 500 μM), and a group treated with 5 μg/ml of LPS and 10 μM of Dexamethasone (DEX) (positive control group) were treated with active substances and drugs respectively, and then RNA was extracted after 3 hours to carry out RT-PCR. RNA was extracted from the A549 cells in the above-described treatment group using an easy-BLUE™ Total RNA extraction kit (Qiagen, Germany). The extracted RNA was converted into cDNA with RT-PCR premix (iNtRON Biotechnology, Seongnam, Korea). After preparing a reaction mixture with PCR premix (iNtRON Biotechnology, Seongnam, Korea) and primers for each gene, PCR was carried out using a PCR machine (Eppendorf, Germany). Next, the mRNA expression pattern was determined by agarose gel electrophoresis. The base sequences of the primers used in the experiment are listed in [Table 2] below.

Sequence: KYLLVHRPYYRR [peptide of Production Example 1]
- expression level of IL-1β in BALF (ELISA) (BALB/c mice [1]): reduced the increased expression levels of the cytokines in a concentration-dependent manner
- expression level of IL-6 in BALF (ELISA) (BALB/c mice [1]): reduced the increased expression levels of the cytokines in a concentration-dependent manner
- expression level of Myeloperoxidase (MPO) in BALF (ELISA) (BALB/c mice [1]): reduced the increased expression levels of the cytokines in a concentration-dependent manner
- expression level of TNF-α in BALF (ELISA) (BALB/c mice [1]): reduced the increased expression levels of the cytokines in a concentration-dependent manner
- number of lymphocytes in bronchoalveolar lavage fluid (BALB/c mice [2]): decreased the increased number of macrophages and the increased number of lymphocytes
- number of macrophages in bronchoalveolar lavage fluid (BALB/c mice [2]): decreased the increased number of macrophages
- gene expression of COX-2 (A549 cells): decreases in a concentration-dependent manner
- gene expression of IL-1β (A549 cells): decreases in a concentration-dependent manner
- gene expression of IL-6 (A549 cells): decreases in a concentration-dependent manner
- gene expression of IL-8 (A549 cells): decreases in a concentration-dependent manner
- gene expression of TNF-α (A549 cells): decreases in a concentration-dependent manner
